Literature values as cited in patent US20020012634A1, “Antimicrobial dental materials contraining 2,4,4' -trichloro2' -hydroxydiphenyl ether” (priority 1997, published 2002).

Experiments:
[1] = system: Gram-positive and Gram-negative bacteria as well as fungi, yeasts and viruses
bacteria = conditions: long-term experiments
plaque bacteria = conditions: toothpaste ingredient, dentifrices

Structure (SMILES): Oc1cc(Cl)ccc1Oc1ccc(Cl)cc1Cl [triclosan, 2,4,4′-trichloro-2′-hydroxydiphenyl ether]
- antimicrobial activity, in words [1]: highly effective antimicrobial with a broad spectrum of activity
- development of bacterial resistance (bacteria): no development of bacterial resistance
- solubility in organic solvents: soluble in many organic solvents
- water solubility: low
- effect against plaque bacteria / plaque (plaque bacteria): effective against plaque bacteria
